Reference: ChEMBL document CHEMBL3430912, “GSK Tres Cantos Anti-Kinetoplastid Screening (TCAKS) Data”

Columns and labels:
Trypanosoma cruzi [1] = test: GSK_TCAKS: pIC50 Trypanosoma cruzi viability assay using beta-GAL activity. This assay was run at single shot at 5uM compound concentration per well. The biological reagents consisted of NIH-3T3 host cells and trypomastigotes parasitic cells; both cell types were set to a 3.3 * 10^5 cells/mL dilution in assay DMEM by means of a CASY cell counter device using a 60um capillary. 6 uL of the mixture were dispensed per well (about 1 * 10^3 host-cells and 1 * 10^3 parasites) with a Multidrop Combi dispenser. […] In all wells, the percentage of DMSO never exceeded 0.5%. Plates incubated for four days at 37C, 5% CO2. The substrate used for the assay fluorescence intensity (FLINT) readout was resorufin-beta-D-galactopiranoside (Sigma-Aldrich) at 5uM per well. It was diluted in PBS supplemented with the soft detergent Igepal (Fluka).; type: functional, organism-based, Mus musculus; conditions: Tulahuen, NIH3T3
Trypanosoma cruzi [2] = test: (§1) GSK_TCAKS: pIC50 Trypanosoma cruzi Imaging: Infected Cells. […] Cells were then washed once with PBS before infection. T. cruzi trypomastigotes, collected at days 5 to 8 after infection from LLC-MK2 parasite infected cultures, were allowed to swim out for 4h at 37C from a centrifuged pellet (2,500 rpm/10 min/room temperature). Trypomastigotes were then collected and counted in a CASY Cell Counter. Trypomastigotes, in supplemented DMEM, were added to H9c2 cultures in a multiplicity of infection of 1 and incubated for 18 h. Cells were washed once with PBS before incubation of the infected H9c2 monolayer with trypsin (Life-Technologies) to detach cells from the flask. Cells were counted in a CASY Cell Counter using a 150 um capillary and their density set at 5 * 10^4 cells per mL in supplemented assay DMEM. Infected H9c2 were dispensed into 384-well poly-lysine coated assay plates at 50uL per well using a Multidrop Combi dispenser. After seeding them, the plates were incubated at 37C, 5% CO2 for 72h. Cultures were then fixed and stained by addition of 50 uL of a solution containing 8% formaldehyde and 4 uM DRAQ5 DNA dye (BioStatus, UK) per well. […] Five images were collected per well for reliable statistical analysis. Automated image analysis was performed with a script developed on Acapella High Content Imaging and Analysis Software (PerkinElmer). Output: percentage of infected cells per well as a second infection marker.; type: functional, organism-based, Rattus norvegicus; conditions: H9c2, 4 h
Trypanosoma cruzi [3] = test: GSK_TCAKS: pIC50 Trypanosoma cruzi Imaging: Amastigotes/Cell. […] Cells were then washed once with PBS before infection. T. cruzi trypomastigotes, collected at days 5 to 8 after infection from LLC-MK2 parasite infected cultures, were allowed to swim out for 4h at 37C from a centrifuged pellet (2,500 rpm/10 min/room temperature). Trypomastigotes were then collected and counted in a CASY Cell Counter. Trypomastigotes, in supplemented DMEM, were added to H9c2 cultures in a multiplicity of infection of 1 and incubated for 18 h. Cells were washed once with PBS before incubation of the infected H9c2 monolayer with trypsin (Life-Technologies) to detach cells from the flask. Cells were counted in a CASY Cell Counter using a 150 um capillary and their density set at 5 * 10^4 cells per mL in supplemented assay DMEM. Infected H9c2 were dispensed into 384-well poly-lysine coated assay plates at 50uL per well using a Multidrop Combi dispenser. After seeding them, the plates were incubated at 37C, 5% CO2 for 72h. Cultures were then fixed and stained by addition of 50 uL of a solution containing 8% formaldehyde and 4 uM DRAQ5 DNA dye (BioStatus, UK) per well. […] Five images were collected per well for reliable statistical analysis. Automated image analysis was performed with a script developed on Acapella High Content Imaging and Analysis Software (PerkinElmer). Output: number of amastigotes per cell as infection level measurement.; type: functional, organism-based, Rattus norvegicus; conditions: H9c2, 4 h
Trypanosoma cruzi [4] = test: as §1, with “H2C9” for “Trypanosoma cruzi”, “H9c2 Host Cardiomyocytes.” for “Infected Cells.”, “Number” for “percentage”, “H9c2 Host Cardiomyocytes nuclei to determine drug-related cytotoxicity.” for “infected cells per well as a second infection marker.”; type: functional, organism-based, Rattus norvegicus; conditions: H9c2, 4 h
Leishmania donovani [5] = test: GSK_TCAKS: pIC50 Leishmania donovani viability assay using fluorescence intensity. Assay plates (1536-well) were prepared by adding 30nL per well of compound. For single shot assay, the final compound concentration was 5uM. […] Briefly, eGFP LdBOB axenic amastigotes were harvested, fixed and counted in a CASY cell counter (Roche-Applied Science). A final concentration of 1.5 * 10^5 cells per well were prepared in amastigote media containing 500 U/mL penicillin/streptomycin (Invitrogen) and 6uL was dispensed to each experimental well using a Multidrop Combi dispenser (Thermo Scientific). 6uL of assay media was dispensed to control columns used as reference for 100% compound response. Following incubation for 72 h at 37C, 5% CO2, 2 uL of resazurin was added to each well at a final concentration of 0.5 mM in phosphate buffered saline (PBS) with IGEPAL (Sigma-Aldrich), 0.05% (v/v).; type: functional, organism-based
Leishmania donovani [6] = test: (§2) GSK_TCAKS: pIC50 Leishmania donovani Imaging: Infected Macrophages. Assay plates (384-well) were prepared by adding 250nL of compound to each well. For single shot assay, the final compound concentration was 5 uM. […] Automated image analysis was performed with a script developed on Acapella High Content Imaging and Analysis Software (PerkinElmer). Output: Percent of infected macrophage cells were reported for each well.; type: functional, organism-based, Homo sapiens; conditions: THP-1
Leishmania donovani [7] = test: as §2, with “Amastigotes/Macrophages.” for “Infected Macrophages.”, “Average number” for “Percent”, “amastigotes per” for “infected”, “cell” for “cells”; type: functional, organism-based, Homo sapiens; conditions: THP-1
Leishmania donovani [8] = test: as §2, with “THP-1 Host” for “Infected”, “THP-1 cell count” for “Percent of infected macrophage cells”; type: functional, organism-based, Homo sapiens
[9] = system: Trypanosoma brucei brucei; test: GSK_TCAKS: pIC50 Trypanosoma brucei viability assay using fluorescence intensity. Assay plates (1536-well) were prepared by dispensing 25nL of compound solution per well using an Echo acoustic dispenser (Labcyte).; type: functional, organism-based; conditions: Lister 427, 2 h
[10] = system: Trypanosoma brucei brucei; test: GSK_TCAKS: pIC50 Trypanosoma brucei viability assay using luminiscence. Assay plates (1536-well) were prepared. T. brucei cultures were harvested and counted in a CASY cell counter. A parasite suspension was prepared at a final concentration of 5 * 10^4 cells/mL in complete HMI9 medium and 6uL was dispensed to all wells containing compounds using a Multidrop Combi dispenser. 6uL of HMI9 media with 0.4% DMSO were dispensed to control columns. Plates were incubated for 24 h at 37C, 5% CO2 then tempered for 10 min at room temperature. ATP content was quantified by adding 4 uL of CellTiter-Glo Reagent (Promega) according to the manufacturer's instructions. Luminescence was measured using a ViewLux.; type: functional, organism-based; conditions: Lister 427, CASY
[11] = GSK_TCAKS: pIC50 HepG2 human cell line viability assay using luminiscence. […] Seeding density was checked to ensure that new mono-layers were not more than 50% confluent at the time of harvesting. Cell suspension was added to 500 mL of the same medium at a final density of 1.2 * 10^5 cells/mL. This cell suspension was dispensed (25 uL, 3000 cells per well) into 384-well clear-bottom plates using a Multidrop Combi dispenser. Prior to addition of the cell suspension, the screening compounds (250 nL) were pre-dispensed into the plates with an Echo liquid handler. Plates were incubated for 48 h at 37C, 5% CO2. After incubation, plates equilibrated at room temperature for 30 min before proceeding to develop the luminescent signal. The signal developer, CellTiter-Glo Reagent, was allowed to equilibrate at room temperature for 30 min and added to the plates (25uL per well) using a Multidrop Combi dispenser. Plates were left for 10 min at room temperature for stabilization and then read using a ViewLux.; type: toxicity, cell-based
[12] = target: Sterol 14-alpha demethylase (Trypanosoma cruzi (strain CL Brener), UniProt Q7Z1V1); test: GSK_TCAKS: pIC50 CYP51 from Trypanosoma cruzi.; type: functional
Chain of Sterol 14-alpha demethylase (Q7Z1V1 whole entry): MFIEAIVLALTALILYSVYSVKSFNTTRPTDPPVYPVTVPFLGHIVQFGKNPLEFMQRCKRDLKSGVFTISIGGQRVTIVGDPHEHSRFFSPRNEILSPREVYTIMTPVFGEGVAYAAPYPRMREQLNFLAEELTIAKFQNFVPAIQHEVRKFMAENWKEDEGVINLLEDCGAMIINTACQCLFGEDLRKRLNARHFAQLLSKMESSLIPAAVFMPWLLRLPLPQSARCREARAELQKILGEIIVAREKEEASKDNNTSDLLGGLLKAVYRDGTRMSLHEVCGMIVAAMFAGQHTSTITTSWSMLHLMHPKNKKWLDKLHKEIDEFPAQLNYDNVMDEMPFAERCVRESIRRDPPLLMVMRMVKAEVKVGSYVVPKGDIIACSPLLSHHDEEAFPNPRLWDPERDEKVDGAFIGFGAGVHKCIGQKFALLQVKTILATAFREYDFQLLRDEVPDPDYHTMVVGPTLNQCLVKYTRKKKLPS

Row | Compound | IC50 (Trypanosoma cruzi [1]) [µM] | IC50 (Trypanosoma cruzi [2]) [µM] | IC50 (Trypanosoma cruzi [3]) [µM] | IC50 (Trypanosoma cruzi [4]) [µM] | IC50 (Leishmania donovani [5]) [µM] | IC50 (Leishmania donovani [6]) [µM] | IC50 (Leishmania donovani [7]) [µM] | IC50 (Leishmania donovani [8]) [µM] | IC50 [9] [µM] | IC50 [10] [µM] | IC50 at 48 h [11] [µM] | IC50 [12] [µM]
1 | Cc1[nH]nc(C(F)(F)F)c1NC(=O)CCn1cc(Cl)c([N+](=O)[O-])n1 | 7.94 | 25.1 | 6.31 | > 50.1 | > 50.1 | > 50.1 | > 50.1 | 15.8 | 0.501 | 0.794 | > 100 | > 100
2 | O=c1ccc2ccc(F)c3c2n1C[C@H]3CN1CCN(CC(O)c2cc3c(cn2)OCS3)CC1 (stereo partly drawn) | 0.708 | 0.631 | 0.316 | > 50.1 | 20 | > 50.1 | > 50.1 | > 50.1 | 0.2 | 0.398 | > 100 | > 100
3 | COc1cc(Cl)c(C)cc1NC(=O)c1ccc([N+](=O)[O-])s1 | 0.631 | 0.631 | 0.501 | 2.51 | 7.94 | 6.31 | 5.01 | > 50.1 | 0.501 | 10 | 31.6 | 15.8
4 | Cc1cc(NC(=O)c2ccc([N+](=O)[O-])s2)ccc1Br | 0.251 | 0.398 | 0.251 | 2.51 | 3.16 | 2.51 | 1.58 | 15.8 | 0.316 | 5.01 | 39.8 | 10
5 | CS(=O)(=O)c1ccccc1C(=O)N(Cc1ccccc1)c1ccccc1 | 50.1 | > 50.1 | 39.8 | > 50.1 | 15.8 | > 50.1 | 15.8 | > 50.1 | 0.398 | 0.631 | > 100 | 20
6 | Cc1ccc(Nc2nc(N)nc(CNC(c3nc4ccccc4[nH]3)C(C)C)n2)cc1 (stereo not drawn) | 1 | 7.94 | 5.01 | > 50.1 | 3.98 | 2 | 1.26 | 25.1 | 7.94 | 5.01 | > 100 | 50.1
7 | O=C(Nc1ccc(S(=O)(=O)N2CCCC2)cc1)c1ccc([N+](=O)[O-])s1 | 0.2 | 0.2 | 0.2 | 1.58 | 7.94 | 1.58 | 1 | > 50.1 | 0.158 | 0.2 | 6.31 | > 100
8 | Cc1ccc(-c2csc(NC(=O)C=Cc3ccc(S(=O)(=O)N4CCOCC4)cc3)n2)o1 | 7.94 | 10 | 10 | 31.6 | 6.31 | 5.01 | 0.794 | > 50.1 | 3.16 | 5.01 | > 100 | 20
9 | O=C(Nc1nc2cc(Cl)ccc2o1)c1cccc(Cl)c1 | 0.794 | 0.794 | 0.631 | 2.51 | 0.398 | > 50.1 | > 50.1 | 6.31 | 0.794 | 0.794 | > 100 | > 100
